In US5700804A, “Pharmaceutical compounds” (Xenova Limited, priority 1992, dated 1997) one finds Inhibition of PAI-1 in the first S2251 chromogenic substrate assay data, which are given here for 19 compounds.

This experiment has as its target PAI-1 (Homo sapiens, UniProt P05121). Put plainly: PAI chromogenic substrate assay (first S2251 assay, tPA/plasminogen system). It is filed as biochemical. The method, then:
In this assay, a compound is incubated with PAI-1 prior to addition to the tPA assay system. Inhibition of PAI-1 results in the production of plasmin from plasminogen. In turn, plasmin cleaves the chromogenic substrate S2251 (Kabi Vitrum) producing pNA (p-nitroaniline) which is detected spectrophotometrically at 405 nm (K. Nilsson et al, Fibrinolysis (1987) 1, 163-168).
Compounds of formula (A) were tested in a PAI chromogenic substrate assay. In the first assay (K. Nilsson, Fibrinolysis (1987) 1, 163-168) each compound was incubated with PAI-1 prior to addition to the tPA assay system. […] In turn, the plasmin cleaved the chromogenic substrate S2251 (Kabi-Vitrum) producing pNA (p-nitroaniline) which was detected spectrophotometrically at 405 nm.

Chain of PAI-1 (P05121 24-402): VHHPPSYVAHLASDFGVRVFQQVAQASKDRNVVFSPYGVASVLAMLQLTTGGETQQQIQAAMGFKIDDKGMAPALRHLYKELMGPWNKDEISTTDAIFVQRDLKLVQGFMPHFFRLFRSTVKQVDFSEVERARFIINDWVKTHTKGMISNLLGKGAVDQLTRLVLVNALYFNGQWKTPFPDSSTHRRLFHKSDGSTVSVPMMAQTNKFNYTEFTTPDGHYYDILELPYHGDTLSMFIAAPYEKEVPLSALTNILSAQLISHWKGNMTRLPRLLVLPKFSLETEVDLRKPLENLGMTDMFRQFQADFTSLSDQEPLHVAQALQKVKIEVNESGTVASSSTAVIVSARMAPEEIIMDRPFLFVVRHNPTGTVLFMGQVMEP

For the compound `COc1ccc(/C=c2\[nH]c(=O)/c(=C/c3ccccc3[N+](=O)[O-])[nH]c2=O)cc1` [Compound 28, (3Z,6Z)-6-(4-Methoxybenzylidene)-3-(2-nitrobenzylidene)-2,5-piperazinedione], the Inhibition of PAI-1 in the first S2251 chromogenic substrate assay reads like this: (Concentration 6.25 μm) 0%; (Concentration 12.5 μm) 1%; (Concentration 25 μm) 45%; (Concentration 50 μm) 74%; (Concentration 100 μm) 71%.

Take `COc1ccc(/C=c2\[nH]c(=O)/c(=C/c3c(Cl)cccc3Cl)[nH]c2=O)cc1` [Compound 29, (3Z,6Z)-3-(2,6-Dichlorobenzylidene)-6-(4-methoxybenzylidene)-2,5-piperazinedione]: the Inhibition of PAI-1 in the first S2251 chromogenic substrate assay runs as follows: (Concentration 6.25 μm) 0%; (Concentration 12.5 μm) 1%; (Concentration 25 μm) 34%; (Concentration 50 μm) 76%; (Concentration 100 μm) 80%.

With `Nc1ccc(/C=c2\[nH]c(=O)/c(=C/c3ccccc3)[nH]c2=O)cc1` [Compound 30, (3Z,6Z)-3-(4-Aminobenzylidene)-6-benzylidene-2,5-piperazinedione], the Inhibition of PAI-1 in the first S2251 chromogenic substrate assay (Concentration 12.5 μm) was found to be 2%, the Inhibition of PAI-1 in the first S2251 chromogenic substrate assay (Concentration 25 μm) was 5%, the Inhibition of PAI-1 in the first S2251 chromogenic substrate assay (Concentration 50 μm) was determined as 23% and the Inhibition of PAI-1 in the first S2251 chromogenic substrate assay (Concentration 100 μm) turned out to be 66%.

As to `CC(=O)Oc1cccc(/C=c2\[nH]c(=O)/c(=C/c3ccccc3)[nH]c2=O)c1` [Compound 31, (3Z,6Z)-3-(3-Acetoxybenzylidene)-6-benzylidene-2,5-piperazinedione], the Inhibition of PAI-1 in the first S2251 chromogenic substrate assay was 0% (Concentration 6.25 μm); 1% (Concentration 12.5 μm); 2% (Concentration 25 μm); 12% (Concentration 50 μm); 58% (Concentration 100 μm).

Take `CC(=O)Oc1ccccc1/C=c1\[nH]c(=O)/c(=C/c2ccccc2)[nH]c1=O` [Compound 32, (3Z,6Z)-3-(2-Acetoxybenzylidene)-6-benzylidene-2,5-piperazinedione]: the Inhibition of PAI-1 in the first S2251 chromogenic substrate assay reads like this: (Concentration 6.25 μm) 0%; (Concentration 12.5 μm) 1%; (Concentration 25 μm) 3%; (Concentration 50 μm) 36%; (Concentration 100 μm) 87%.

In turn, `O=c1[nH]/c(=C\c2cccc(O)c2)c(=O)[nH]/c1=C\c1ccccc1` [Compound 33, (3Z,6Z)-6-Benzylidene-3-(3-hydroxybenzylidene)-2,5-piperazinedione] had an Inhibition of PAI-1 in the first S2251 chromogenic substrate assay (Concentration 6.25 μm) of 0%; an Inhibition of PAI-1 in the first S2251 chromogenic substrate assay (Concentration 12.5 μm) of 1%; an Inhibition of PAI-1 in the first S2251 chromogenic substrate assay (Concentration 25 μm) of 1%; an Inhibition of PAI-1 in the first S2251 chromogenic substrate assay (Concentration 50 μm) of 3%; an Inhibition of PAI-1 in the first S2251 chromogenic substrate assay (Concentration 100 μm) of 56%.

Regarding `CC(=O)Nc1ccc(/C=c2\[nH]c(=O)/c(=C/c3ccccc3)[nH]c2=O)cc1` [Compound 34, (3Z,6Z)-3-(4-Acetamidobenzylidene)-6-benzylidene-2,5-piperazinedione], the Inhibition of PAI-1 in the first S2251 chromogenic substrate assay is 24% (Concentration 7.5 μm), 76% (Concentration 15 μm), 77% (Concentration 30 μm) and 72% (Concentration 60 μm).

As for `O=c1[nH]/c(=C\c2cccc([N+](=O)[O-])c2)c(=O)[nH]/c1=C\c1cccc([N+](=O)[O-])c1` [Compound 35, (3Z,6Z)-3,6-Di-(3-Nitrobenzylidene)-2,5-piperazinedione], the Inhibition of PAI-1 in the first S2251 chromogenic substrate assay reads like this: (Concentration 25 μm) 2%; (Concentration 50 μm) 28%; (Concentration 100 μm) 52%.

With `COc1ccc(/C=c2\[nH]c(=O)/c(=C/c3ccc(O)cc3)[nH]c2=O)cc1` [Compound 36, (3Z,6Z)-3-(4-Hydroxybenzylidene)-6-(4-methoxybenzylidene)-2,5-piperazinedione], the Inhibition of PAI-1 in the first S2251 chromogenic substrate assay by setting is: (Concentration 25 μm) 1%; (Concentration 50 μm) 6%; (Concentration 100 μm) 71%.

In the case of `COc1ccc(/C=c2\[nH]c(=O)/c(=C/c3ccc(OC(C)=O)cc3)[nH]c2=O)cc1` [Compound 37, (3Z,6Z)-3-(4-Acetoxybenzylidene)-6-(4-methoxybenzylidene)-2,5-piperazinedione], the Inhibition of PAI-1 in the first S2251 chromogenic substrate assay is 2% (Concentration 25 μm), 19% (Concentration 50 μm) and 69% (Concentration 100 μm).

Regarding `CC(=O)Nc1ccccc1/C=c1\[nH]c(=O)/c(=C/c2ccccc2)[nH]c1=O` [Compound 38, (3Z,6Z)-3-(2-Acetamidobenzylidene)-6-benzylidene-2,5-piperazinedione], the Inhibition of PAI-1 in the first S2251 chromogenic substrate assay by setting is: (Concentration 6.25 μm) 1%; (Concentration 12.5 μm) 1%; (Concentration 25 μm) 1%; (Concentration 50 μm) 3%; (Concentration 100 μm) 64%.

Consider `Nc1ccccc1/C=c1\[nH]c(=O)/c(=C/c2ccccc2)[nH]c1=O` [Compound 39, (3Z,6Z)-3-(2-Aminobenzylidene)-6-benzylidene-2,5-piperazinedione], for which the Inhibition of PAI-1 in the first S2251 chromogenic substrate assay was 0% (Concentration 6.25 μm); 1% (Concentration 12.5 μm); 1% (Concentration 25 μm); 20% (Concentration 50 μm); 67% (Concentration 100 μm).

As for `CC(=O)Nc1ccc(/C=c2\[nH]c(=O)/c(=C/c3c(Cl)cccc3Cl)[nH]c2=O)cc1` [Compound 40, (3Z,6Z)-3-(4-Acetamidobenzylidene)-6-(2,6-dichlorobenzylidene)-2,5-piperazinedione], the Inhibition of PAI-1 in the first S2251 chromogenic substrate assay was found to be 1% (Concentration 6.25 μm); 4% (Concentration 12.5 μm); 23% (Concentration 25 μm); 61% (Concentration 50 μm); 61% (Concentration 100 μm).

As to `COc1ccc(/C=c2\[nH]c(=O)/c(=C/c3ccc(N(C)C(C)=O)cc3)[nH]c2=O)cc1` [Compound 41, (3Z,6Z)-3-(4-Methoxybenzylidene)-6-(4-N-methylacetamidobenzylidene)-2,5-piperazinedione], the Inhibition of PAI-1 in the first S2251 chromogenic substrate assay by setting is: (Concentration 6.25 μm) 3%; (Concentration 12.5 μm) 8%; (Concentration 25 μm) 32%; (Concentration 50 μm) 45%; (Concentration 100 μm) 51%.

Consider `CC(=O)Nc1ccc(/C=c2\[nH]c(=O)/c(=C/c3ccc(Cl)cc3)[nH]c2=O)cc1` [Compound 42, (3Z,6Z)-3-(4-Acetamidobenzylidene)-6-(4-chlorobenzylidene)-2,5-piperazinedione], for which the Inhibition of PAI-1 in the first S2251 chromogenic substrate assay (Concentration 3.75 μm) turned out to be 1%; the Inhibition of PAI-1 in the first S2251 chromogenic substrate assay (Concentration 7.5 μm) came out at 4%; the Inhibition of PAI-1 in the first S2251 chromogenic substrate assay (Concentration 15 μm) is 59%; the Inhibition of PAI-1 in the first S2251 chromogenic substrate assay (Concentration 30 μm) is 57%; the Inhibition of PAI-1 in the first S2251 chromogenic substrate assay (Concentration 60 μm) turned out to be 58%.

Regarding `CC(=O)OCc1ccc(/C=c2\[nH]c(=O)/c(=C/c3ccccc3)[nH]c2=O)cc1` [Compound 43, (3Z,6Z)-3-(4-Acetoxymethylbenzylidene)-6-benzylidene-2,5-piperazinedione], the Inhibition of PAI-1 in the first S2251 chromogenic substrate assay runs as follows: (Concentration 6.25 μm) 1%; (Concentration 12.5 μm) 1%; (Concentration 25 μm) 3%; (Concentration 50 μm) 45%; (Concentration 100 μm) 59%.

For the compound `CC(=O)NCc1ccc(/C=c2\[nH]c(=O)/c(=C/c3ccccc3)[nH]c2=O)cc1` [Compound 44, (3Z,6Z)-3-(4-Acetamidomethylbenzylidene)-6-benzylidene-2,5-piperazinedione], the Inhibition of PAI-1 in the first S2251 chromogenic substrate assay runs as follows: (Concentration 6.25 μm) 1%; (Concentration 12.5 μm) 1%; (Concentration 25 μm) 1%; (Concentration 50 μm) 2%; (Concentration 100 μm) 51%.

Turning to `O=c1[nH]/c(=C\c2ccccc2)c(=O)[nH]/c1=C\c1ccccc1` [Compound 45, (3Z,6Z)-3,6-Dibenzylidene-2,5-piperazinedione], the Inhibition of PAI-1 in the first S2251 chromogenic substrate assay by setting is: (Concentration 12.5 μm) 1%; (Concentration 25 μm) 1%; (Concentration 50 μm) 13%; (Concentration 100 μm) 53%.

Consider `COc1ccc(/C=c2\[nH]c(=O)/c(=C/c3ccc(S(C)(=O)=O)cc3)[nH]c2=O)cc1` [Compound 46, (3Z,6Z)-3-(4-Methoxybenzylidene)-6-(4-methylsulfonylbenzylidene)-2,5-piperazinedione], for which the Inhibition of PAI-1 in the first S2251 chromogenic substrate assay is, setting by setting: (Concentration 12.5 μm) 14%; (Concentration 25 μm) 38%; (Concentration 50 μm) 42%; (Concentration 100 μm) 39%.
